# Measured values taken from US3981868A.
# Test system: diastolic blood pressure
# Test: hypotensive activity in anesthetized rats (minimal dose lowering diastolic blood pressure about 10 mm.)
# Type: in vivo, Male Wistar strain rats
# Conditions: Rattus norvegicus; intravenous; dose producing a decrease of about 10 mm. in diastolic blood pressure
# Protocol: This procedure is a modification of the technique described by Pike et al., Prostaglandins, Nobel Symposium 2, Stockholm, June, 1966; p. 165.
# Male Wistar strain rats (Royal Hart Farms) averaging approximately 250 grams in weight were fastened to rat boards in a supine position by means of canvas vests and limb ties. The femoral area was infiltrated subcutaneously with lidocaine and the iliac artery and vein were exposed and cannulated. Arterial blood pressure (systolic/diastolic) was recorded using a Statham P23 Db pressure transducer-Offner dynograph system. To obtain a stable blood pressure, the animals were anesthetized before use with pentobarbital, 30 mg./kg. of body weight intravenously, and also were given hexamethonium bitartrate, 2 mg./kg., of body weight intravenously. The test compounds were prepared by ultrasonic dispersion in a saline-Tween 80 vehicle. A constant intravenous dose volume of 0.5 ml. was administered and test doses ranged from 0.1 to 10.0 mg./kg. of body weight. Increasing or decreasing doses were selected depending on the dose response obtained. In Table I below are set forth the minimal doses required to produce a decrease of about 10 mm. in diastolic blood pressure for typical compounds of the present invention.
row,Structure (SMILES),minimal effective dose
1,"CCCCCC/C=C/[C@H]1CCC(=O)[C@@H]1CCCCCCC(=O)N(C)C (relative stereo) [N,N-dimethyl-9-oxo-13-trans-prostenamide]",2 mg/kg
2,CCCCCC/C=C/[C@H]1CCC(=O)[C@@H]1CCCCCCC(=O)NCCO (relative stereo) [N-(2-hydroxyethyl)-9-oxo-13-trans-prostenamide],0.4 mg/kg
3,CCCCCC/C=C/[C@H]1CCC(=O)[C@@H]1CCCCCCC(=O)NC (relative stereo) [N-methyl-9-oxo-13-trans-prostenamide],4 to 8 mg/kg
4,CCCCCC/C=C/[C@H]1CCC(O)[C@@H]1CCCCCCC(=O)NCCCN(C)C (stereo partly drawn) [N-(3-dimethylaminopropyl)-9-(α- and β-)-hydroxy-13-trans-prostenamide],0.2 mg/kg

# Test system: Microsporum canis ATCC 10214
# Test: agar-dilution streak-plate antifungal assay (1)
# Type: cell-based
# Conditions: ATCC10214, read-out: Minimal inhibitory conc.
# Protocol: (§1) The novel compounds of the present invention are also useful as antimicrobial agents. […] In this assay, the compounds to be tested are made up to contain 2.5 mg. of test compound per milliliter of solution. Observing sterile techniques, two-fold serial dilutions are made of each test solution. One milliliter of each of the original solutions and of each of the serial dilutions is then added to 9 ml. of warm sterile nutrient agar capable of supporting growth of the bacterial test cultures. A second set of agar dilutions is prepared identical to the first except that the nutrient agar is designed to support the growth of the fungal test cultures. […] The test bacteria and yeast-like fungi are prepared for use by growing in broth overnight. The spores of the filamentous fungi are harvested from mature agar slant cultures and are suspended in sterile physiological saline solution. A loopful of each of the resulting live suspensions is then, still employing sterile techniques, streaked upon the surfaces of each of the agar plates and the resulting streaked plates are then incubated. After an appropriate period of time, each of the streaks on each of the plates is inspected visually and the extent, if any, of bacterial or fungal growth is noted. The minimal inhibitory concentration (expressed in micrograms per milliliter) is defined as the concentration of test compound causing complete inhibition of growth of any particular organism. In a representative operation, and merely by way of illustration, the minimal inhibitory concentration of typical compounds of the present invention against a variety of test organisms as determined in the above-described assay are set forth in Tables II and III below: […]
row,Structure (SMILES),MIC
1,"CCCCCC/C=C/[C@H]1CCC(=O)[C@@H]1CCCCCCC(=O)N(C)C (relative stereo) [N,N-dimethyl-9-oxo-13-trans-prostenamide]",25 µg/mL
2,CCCCCC/C=C/[C@H]1CCC(=O)[C@@H]1CCCCCCC(=O)NCCO (relative stereo) [N-(2-hydroxyethyl)-9-oxo-13-trans-prostenamide],25 µg/mL
3,CCCCCC/C=C/[C@H]1CCC(=O)[C@@H]1CCCCCCC(=O)NC (relative stereo) [N-methyl-9-oxo-13-trans-prostenamide],100 µg/mL
4,CCCCCC/C=C/[C@H]1CCC(O)[C@@H]1CCCCCCC(=O)NCCCN(C)C (stereo partly drawn) [N-(3-dimethylaminopropyl)-9-(α- and β-)-hydroxy-13-trans-prostenamide],250 µg/mL

# Test system: Microsporum gypseum ATCC 14683
# Test: agar-dilution streak-plate antifungal assay (2)
# Type: cell-based
# Conditions: Nannizzia gypsea, ATCC14683, read-out: Minimal inhibitory conc.
# Protocol: as §1
row,Structure (SMILES),MIC
1,"CCCCCC/C=C/[C@H]1CCC(=O)[C@@H]1CCCCCCC(=O)N(C)C (relative stereo) [N,N-dimethyl-9-oxo-13-trans-prostenamide]",25 µg/mL
2,CCCCCC/C=C/[C@H]1CCC(=O)[C@@H]1CCCCCCC(=O)NCCO (relative stereo) [N-(2-hydroxyethyl)-9-oxo-13-trans-prostenamide],25 µg/mL
3,CCCCCC/C=C/[C@H]1CCC(=O)[C@@H]1CCCCCCC(=O)NC (relative stereo) [N-methyl-9-oxo-13-trans-prostenamide],50 µg/mL
4,CCCCCC/C=C/[C@H]1CCC(O)[C@@H]1CCCCCCC(=O)NCCCN(C)C (stereo partly drawn) [N-(3-dimethylaminopropyl)-9-(α- and β-)-hydroxy-13-trans-prostenamide],125 µg/mL

# Test system: Trichophyton tonsurans NIH 662
# Test: agar-dilution streak-plate antifungal assay (3)
# Type: cell-based
# Conditions: NIH662, read-out: Minimal inhibitory conc.
# Protocol: as §1
row,Structure (SMILES),MIC
1,"CCCCCC/C=C/[C@H]1CCC(=O)[C@@H]1CCCCCCC(=O)N(C)C (relative stereo) [N,N-dimethyl-9-oxo-13-trans-prostenamide]",25 µg/mL
2,CCCCCC/C=C/[C@H]1CCC(=O)[C@@H]1CCCCCCC(=O)NCCO (relative stereo) [N-(2-hydroxyethyl)-9-oxo-13-trans-prostenamide],25 µg/mL
3,CCCCCC/C=C/[C@H]1CCC(=O)[C@@H]1CCCCCCC(=O)NC (relative stereo) [N-methyl-9-oxo-13-trans-prostenamide],25 µg/mL
4,CCCCCC/C=C/[C@H]1CCC(O)[C@@H]1CCCCCCC(=O)NCCCN(C)C (stereo partly drawn) [N-(3-dimethylaminopropyl)-9-(α- and β-)-hydroxy-13-trans-prostenamide],125 µg/mL

# Test system: Trichophyton mentagrophytes E 11?
# Test: agar-dilution streak-plate antifungal assay (4)
# Type: cell-based
# Conditions: read-out: Minimal inhibitory conc.
# Protocol: as §1
row,Structure (SMILES),MIC
1,"CCCCCC/C=C/[C@H]1CCC(=O)[C@@H]1CCCCCCC(=O)N(C)C (relative stereo) [N,N-dimethyl-9-oxo-13-trans-prostenamide]",25 µg/mL
2,CCCCCC/C=C/[C@H]1CCC(=O)[C@@H]1CCCCCCC(=O)NCCO (relative stereo) [N-(2-hydroxyethyl)-9-oxo-13-trans-prostenamide],10 µg/mL
3,CCCCCC/C=C/[C@H]1CCC(=O)[C@@H]1CCCCCCC(=O)NC (relative stereo) [N-methyl-9-oxo-13-trans-prostenamide],25 µg/mL
4,CCCCCC/C=C/[C@H]1CCC(O)[C@@H]1CCCCCCC(=O)NCCCN(C)C (stereo partly drawn) [N-(3-dimethylaminopropyl)-9-(α- and β-)-hydroxy-13-trans-prostenamide],125 µg/mL

# Test system: Trichophyton rubrum E 97
# Test: agar-dilution streak-plate antifungal assay (5)
# Type: cell-based
# Conditions: E97, read-out: Minimal inhibitory conc.
# Protocol: as §1
row,Structure (SMILES),MIC
1,"CCCCCC/C=C/[C@H]1CCC(=O)[C@@H]1CCCCCCC(=O)N(C)C (relative stereo) [N,N-dimethyl-9-oxo-13-trans-prostenamide]",25 µg/mL
2,CCCCCC/C=C/[C@H]1CCC(=O)[C@@H]1CCCCCCC(=O)NCCO (relative stereo) [N-(2-hydroxyethyl)-9-oxo-13-trans-prostenamide],25 µg/mL
3,CCCCCC/C=C/[C@H]1CCC(=O)[C@@H]1CCCCCCC(=O)NC (relative stereo) [N-methyl-9-oxo-13-trans-prostenamide],100 µg/mL
4,CCCCCC/C=C/[C@H]1CCC(O)[C@@H]1CCCCCCC(=O)NCCCN(C)C (stereo partly drawn) [N-(3-dimethylaminopropyl)-9-(α- and β-)-hydroxy-13-trans-prostenamide],250 µg/mL

# Test system: Mycobacterium smegmatis ATCC 606
# Test: agar-dilution streak-plate antibacterial assay (6)
# Type: cell-based
# Conditions: Mycolicibacterium smegmatis, ATCC606, read-out: Minimal inhibitory conc.
# Protocol: as §1
row,Structure (SMILES),MIC
1,"CCCCCC/C=C/[C@H]1CCC(=O)[C@@H]1CCCCCCC(=O)N(C)C (relative stereo) [N,N-dimethyl-9-oxo-13-trans-prostenamide]",10 µg/mL
2,CCCCCC/C=C/[C@H]1CCC(=O)[C@@H]1CCCCCCC(=O)NCCO (relative stereo) [N-(2-hydroxyethyl)-9-oxo-13-trans-prostenamide],25 µg/mL
3,CCCCCC/C=C/[C@H]1CCC(O)[C@@H]1CCCCCCC(=O)NCCCN(C)C (stereo partly drawn) [N-(3-dimethylaminopropyl)-9-(α- and β-)-hydroxy-13-trans-prostenamide],6 µg/mL

# Test system: Staphylococcus aureus Rose ATCC 14154
# Test: agar-dilution streak-plate antibacterial assay (7)
# Type: cell-based
# Conditions: ATCC14154, read-out: Minimal inhibitory conc.
# Protocol: as §1
row,Structure (SMILES),MIC
1,"CCCCCC/C=C/[C@H]1CCC(=O)[C@@H]1CCCCCCC(=O)N(C)C (relative stereo) [N,N-dimethyl-9-oxo-13-trans-prostenamide]",25 µg/mL
2,CCCCCC/C=C/[C@H]1CCC(=O)[C@@H]1CCCCCCC(=O)NCCO (relative stereo) [N-(2-hydroxyethyl)-9-oxo-13-trans-prostenamide],25 µg/mL
3,CCCCCC/C=C/[C@H]1CCC(=O)[C@@H]1CCCCCCC(=O)NC (relative stereo) [N-methyl-9-oxo-13-trans-prostenamide],5 µg/mL
4,CCCCCC/C=C/[C@H]1CCC(O)[C@@H]1CCCCCCC(=O)NCCCN(C)C (stereo partly drawn) [N-(3-dimethylaminopropyl)-9-(α- and β-)-hydroxy-13-trans-prostenamide],62 µg/mL

# Test system: Streptococcus pyogenes C 203
# Test: agar-dilution streak-plate antibacterial assay (8)
# Type: cell-based
# Conditions: C203, read-out: Minimal inhibitory conc.
# Protocol: as §1
row,Structure (SMILES),MIC
1,"CCCCCC/C=C/[C@H]1CCC(=O)[C@@H]1CCCCCCC(=O)N(C)C (relative stereo) [N,N-dimethyl-9-oxo-13-trans-prostenamide]",10 µg/mL
2,CCCCCC/C=C/[C@H]1CCC(=O)[C@@H]1CCCCCCC(=O)NCCO (relative stereo) [N-(2-hydroxyethyl)-9-oxo-13-trans-prostenamide],10 µg/mL
3,CCCCCC/C=C/[C@H]1CCC(O)[C@@H]1CCCCCCC(=O)NCCCN(C)C (stereo partly drawn) [N-(3-dimethylaminopropyl)-9-(α- and β-)-hydroxy-13-trans-prostenamide],6 µg/mL

# Test system: gastric acid secretion
# Test: inhibition of gastric acid secretion (pylorus-ligated rat, Shay rat)
# Type: in vivo, rats (male, CFE strain)
# Conditions: intraduodenal dose 100 mg./kg. body weight, 3 hours, 20% or more considered active
# Protocol: The novel compounds of the present invention are also effective inhibitors of gastric acid secretion and of ulcer development in experimental animals, and thus are potentially valuable as agents for the control of gastric acid secretion and of gastric erosion and as anti-ulcer agents. Gastric acid secretion inhibitory action is usually measured by the "Shay rat" procedure ^(1,2) with some modifications as follows.
# The rats (male, CFE strain) were starved for 48 hours (water was given ad libitum) to permit evacuation of stomach contents. On the morning of the experiment, under ether anesthesia, the abdominal region was shaved and a midline incision (1-11/2 inches) was made with a scalpel. With the help of a closed curved hemostat the duodenum was picked up. Upon getting the duodenum into view fingers were used to pull the stomach through the opening, the stomach was then gently manipulated with fingers to rid the stomach of air and residual matter which were pushed through the pylorus. Two 5-inch sutures were drawn under the pyloric-duodenal juncture. A ligature, at the juncture, was formed with one of the threads. The second ligature was also formed by not tightened.
# The test compound or the vehicle, usually 1 ml./100 g. body weight, were injected into the duodenum as close as possible to the first ligature. After injection the second ligature was tightened below the injection site to minimize leakage. The stomach was placed back through the opening into the abdominal cavity, the area of incision was washed with saline and the incision was closed with autoclips. (Ocasionally, instead of an intraduodenal injection, animals were dosed by the oral or subcutaneous route. In the latter case, dosing was done thirty to sixty minutes before the operation).
# The abdominal cavity was exposed by cutting with scissors and the esophagus close to the stomach was clamped off with a hemostat, the stomach was removed by cutting above the hemostat (the espohagus was cut) and between the two sutures. Extraneous tissue was removed, the stomach washed with saline and blotted on gauze. A slit was carefully made in the stomach which was held over a funnel and the contents were collected in a centrifuge tube. The stomach was further cut along the outside edge and turned inside out. Two ml. of water were used to wash the stomach contents into the respective centrifuge tube. The combined stomach contents and wash were then centrifuged out for 10 minutes in the International Size 2 Centrifuge (setting at 30). The supernatant was collected, volume measured and recorded, 2 drops of phenolphthalein indicator (1% in 95% ethanol) were added and the solution was titrated with 0.02N NaOH (or with 0.04N NaOH when large volumes of stomach contents were encountered) to pH 8.4 (because of usual coloring of the stomach contents, phenolphthalein was only used to permit visual indication that the end point was near) and the amount of acid present was calculated.
# Compounds inducing inhibition of gastric acid secretion of 20% or more were considered active. In a representative operation, and merely by way of illustration, the results obtained with this assay with typical compounds of the present invention are given in Table IIIA.
row,Structure (SMILES),Percent Inhibition of gastric acid secretion
1,"CCC/C=C/[C@H]1CCC(=O)[C@@H]1CCCCCCC(=O)NCCCN(C)C (relative stereo) [N-(3-dimethylaminopropyl) 9-oxo-18,19,20-trinor-13-trans-prostenamide]",87%
2,CCCCCC/C=C/[C@H]1CCC(O)[C@@H]1CCCCCCC(=O)NCCCN(C)C (stereo partly drawn) [N-(3-dimethylaminopropyl)-9-(α- and β-)-hydroxy-13-trans-prostenamide],85%

# Test system: dl-PGE1-induced contraction of gerbil colon
# Test: inhibition of dl-PGE1-induced contraction of gerbil colon
# Conditions: maximal challenge, 200 ng./ml. dl-PGE1; approximate
row,Structure (SMILES),ID50 vs. 200 ng. of PGE1 ml.
1,CCCCCC/C=C/[C@H]1CCC(=O)[C@@H]1CCCCCCC(=O)N1CCN(C)CC1 (relative stereo),3 µg/mL

# Same assay, conditions: sub-maximal challenge, 20 ng./ml. dl-PGE1; 50% inhibition of maximum response; approximate
row,Structure (SMILES),ID50 vs. 20 ng. of PGE1 /ml.
1,CCCCCC/C=C/[C@H]1CCC(=O)[C@@H]1CCCCCCC(=O)N1CC2CCC(CC2)C1 (relative stereo),4 µg/mL
2,CCCCCC/C=C/[C@H]1CCC(=O)[C@@H]1CCCCCCC(=O)N1CCN(C)CC1 (relative stereo),0.5 µg/mL
3,"CCCCCC/C=C/[C@H]1CCC(=O)[C@@H]1CCCCCCC(=O)N(C)C (relative stereo) [N,N-dimethyl-9-oxo-13-trans-prostenamide]",2 µg/mL
4,CCCCCC/C=C/[C@H]1CCC(=O)[C@@H]1CCCCCCC(=O)NCCO (relative stereo) [N-(2-hydroxyethyl)-9-oxo-13-trans-prostenamide],1 µg/mL
